In one data set the test system is renal tubular transport. To be noted: mouse, in vivo.
For data set [1] the following is noted: human, in vivo; cited from earlier work.
The conditions of data set [2]: rat, in vivo, iv, 1.5 h; cited from earlier work.
For data set [3] the following is noted: in vivo; cited from earlier work.
The subject of the next data set is plasma proteins. Conditions: cited from earlier work.
The conditions of data set [4]: mouse, in vivo, 5 min; cited from earlier work.
For data set [5] the following is noted: rat, in vivo; cited from earlier work.

Experimental for renal tubular transport: A dose of 50 mg/kg of probenicid was given 10 minutes prior to injection of radiochemicals. OIH was injected simultaneously.
*Values are mean and S.E.M. percent injected dose at 10 min. post

In the case of “1,2-Bis(mercaptoacetamido)ethane [Tc-DADS]”, the “decrease in renal excretion with probenicid, in words” value in the data set with renal tubular transport was “decrease in renal excretion of Tc-DADS to a much greater extent than OIH”. In the data set on renal tubular transport (10 min), this substance registered a Blood of 1.85 percent injected dose, an Intestines of 4.69 percent injected dose, a Kidneys of 4.25 percent injected dose and a Liver of 2.24 percent injected dose. For the same substance, in data set [1], the distribution of radioactivity result is reported as “confined radioactivity to the vascular system rather than the extracellular space as with Tc-DTPA”, the “effect of decreased renal function on renal excretion” value is given as “decreased renal function reduced renal excretion of Tc-DADS to a greater extent than OIH” and the hepatobiliary excretion result is on record as “hepatobiliary excretion became significant”. In addition, the “biliary excretion of radioactivity in the absence of renal function” value in data set [2] is 19%. In addition, in data set [3], the renal retention entry is on record as “no evidence of significant renal retention”. For the same substance, in the data set on plasma proteins, the protein binding value is listed as 95%. In addition, in data set [4], the Kidneys is listed as 12.6 % of the dose and the in the urine is given as 28%. For the same substance, in data set [5], the “time at which radioactivity remaining in the blood was 2%” value is 68 min and the “time at which radioactivity remaining in the blood was 5%” value is 19 min.

The values above are taken from patent US4444690A, “Technetium chelates” (priority 1982, dated 1984).
